Measurements published in US8716285B2, “N-hydroxy-benzamids for the treatment of cancer” (Hoffmann-La Roche Inc., priority 2010, dated 2014).
pEC50, pIC50: −log10 of the molar value.

How the values were obtained:
HDAC6 = HDAC6 (Homo sapiens (Human), UniProt Q9UBN7); assay: Tubulin acetylation cytoblot assay (A549 cells); assay type: cell-based; settings: 17-18 h, concentration for 50% induction of acetylated tubulin, read-out: Tub-ac EC50
Experimental: Tubulin acetylation is a PD marker for HDAC6 inhibition. The extent of tubulin acetylation represents the inhibitory effect on HDAC6.
Novel compounds were tested for their ability to inhibit HDAC6 using a cell-based deacetylation assay. Tubulin acetylation was detected by the anti-acetylated tubulin antibody (Sigma) and horse radish peroxidase (HRP) conjugated secondary antibody (KangChen Bio. Tech.). […] 20 μl of diluted compound solution was transferred to the cell culture plate and incubated for 17-18 h. After medium removal and fixation by formaldehyde (3.7% paraformaldehyde in TBS), the cells in the plates were treated with 180 μl of −20° C. MeOH and incubated for 5 min at rt. The cell lysis was incubated with 75 μl of primary anti-acetylated tubulin antibody and secondary HRP conjugated antibody solution (1:750 anti-acetylated tubulin, 1:750 HRP conjugated anti-mouse IgG in antibody dilution buffer not containing sodium azide) for 4 h at 4° C. By adding the HRP substrate, enhanced chemiluminescence (ECL) reagent (GE Healthcare) generated luminescence corresponding to the level of tubulin acetylation. So that 75 μl of ECL was added into the wells and the luminescence from each well was immediately quantified by the plate reader. Based on the luminescence reading, the IC50s against HDAC6 of the tested compounds were calculated by plotting the curve with XLfit4.0 software. Inhibition %=[signal(sample)−Mean(bottom)]*100/[Mean(top)−Mean(bottom)]

[1] = test system: p21 promoter-luciferase construct; assay: p21 reporter gene induction in HeLa cells transfected with p21 promoter-luciferase construct; assay type: cell-based; settings: for p21 RP3: relative gene level of p21 induced compared to MS275 at 3 μM; for p21 RP10: relative level of p21 induced compared to MS275 at 10 μM; for p21 RP30: relative level of p21 induced compared to MS275 at 30 μM
Experimental: As a surrogate for in-cell HDAC1/2/3 inhibition, p21 induction was used as a counterscreen to evaluate the selectivity of the compounds in the present invention toward HDAC6 or HDAC8.
The novel compounds of the present invention were tested for their ability to induce p21 gene expression using a reporter gene assay involving HeLa cells transfected with a p21 promoter-luciferase construct. The p21 promoter contained the Sp1/Sp3 binding site for HDAC but not the upstream p53 binding site. Briefly, the day before transfection, HeLa cells were seeded at 11,000 cells/well in a 96-well culture plate and incubated at 37° C. in 5% CO2 overnight. A transfection media was prepared prior to transfection according to the following procedure: (1) 5 μl serum-free DMEM, 0.15 μl Fugene 6 reagent, 40 ng p21-luc, 10 ng GFP were mixed gently and incubated at rt for 30 minutes; (2), then 98 μl DMEM (with 10% FBS, 1% penicillin and streptomycin) was added to the DNA: Fugene 6 reagent complex and mixed gently. For transfection, the medium was removed and replaced with 100 μl/well transfection media which was prepared according to the procedure above. After incubating the cells for 24 hours at 37° C. in 5% CO2, fresh media and test compounds were added to the wells and the cells further incubated for 15 hours at 37° C. in 5% CO2. Cells were lysed by adding 80 μl/well of a cell culture lysis reagent (Promega). […] 100 μl luciferase assay reagent (Promega) was then added to every 20 μl cell lysate for luminometer detection. […] Induction activity for specific representative compounds can be found in Table 3.

recombinant human HDAC8 = recombinant human HDAC8 (Homo sapiens (Human), UniProt Q9BY41); assay: HDAC8 inhibition: recombinant HDAC8 fluorometric assay; assay type: biochemical; settings: recombinant human HDAC8, substrate Ac-Arg-His-Lys-Lys(ε-acetyl)-AMC
Experimental: A competitive inhibitory assay of HDAC8 was carried out by using recombinant HDAC8 and a commercial substrate Ac-Arg-His-Lys-Lys(ε-acetyl)-AMC.
Compounds were tested for their ability to inhibit histone deacetylase 8 using an in vitro deacetylation assay. The enzyme source for this assay was recombinant human HDAC8 protein expressed and purified from insect cells. […] The substrate consisted of a commercial product Ac-Arg-His-Lys-Lys(ε-acetyl)-AMC (substrate is available from Cayman Chemical). […] In a detailed procedure, 8 μl of HDAC8 enzyme solution (0.125 μg/μl) was transferred to assay plates (CORNING 3676). 1 μl of half-log diluted compounds were added into wells and incubated for 15 min at rt. After that, 8 μl of substrate solution was transferred to the wells and incubated for 30 min at rt. After deacetylation of the substrate by incubation with HDAC8 enzyme, subsequent exposure to a developing reagent produced a fluorophore that was directly proportional to the level of deacetylation. So 4 μl of developer regent (Cayman 10006394) was added into the wells in the assay plates and incubated for 15 min. The fluorescence signal was measured by a FlexStation3 plate reader (excitation wave length 340-360 nm; emission wave length 440-465 nm). The IC50 was calculated after normalization and curve fitting using XLfit4.0 software. Inhibition %=[Mean(top)−signal(sample)]*100/[Mean(top)−Mean(bottom)].

Chain of HDAC6 (Q9UBN7 whole entry): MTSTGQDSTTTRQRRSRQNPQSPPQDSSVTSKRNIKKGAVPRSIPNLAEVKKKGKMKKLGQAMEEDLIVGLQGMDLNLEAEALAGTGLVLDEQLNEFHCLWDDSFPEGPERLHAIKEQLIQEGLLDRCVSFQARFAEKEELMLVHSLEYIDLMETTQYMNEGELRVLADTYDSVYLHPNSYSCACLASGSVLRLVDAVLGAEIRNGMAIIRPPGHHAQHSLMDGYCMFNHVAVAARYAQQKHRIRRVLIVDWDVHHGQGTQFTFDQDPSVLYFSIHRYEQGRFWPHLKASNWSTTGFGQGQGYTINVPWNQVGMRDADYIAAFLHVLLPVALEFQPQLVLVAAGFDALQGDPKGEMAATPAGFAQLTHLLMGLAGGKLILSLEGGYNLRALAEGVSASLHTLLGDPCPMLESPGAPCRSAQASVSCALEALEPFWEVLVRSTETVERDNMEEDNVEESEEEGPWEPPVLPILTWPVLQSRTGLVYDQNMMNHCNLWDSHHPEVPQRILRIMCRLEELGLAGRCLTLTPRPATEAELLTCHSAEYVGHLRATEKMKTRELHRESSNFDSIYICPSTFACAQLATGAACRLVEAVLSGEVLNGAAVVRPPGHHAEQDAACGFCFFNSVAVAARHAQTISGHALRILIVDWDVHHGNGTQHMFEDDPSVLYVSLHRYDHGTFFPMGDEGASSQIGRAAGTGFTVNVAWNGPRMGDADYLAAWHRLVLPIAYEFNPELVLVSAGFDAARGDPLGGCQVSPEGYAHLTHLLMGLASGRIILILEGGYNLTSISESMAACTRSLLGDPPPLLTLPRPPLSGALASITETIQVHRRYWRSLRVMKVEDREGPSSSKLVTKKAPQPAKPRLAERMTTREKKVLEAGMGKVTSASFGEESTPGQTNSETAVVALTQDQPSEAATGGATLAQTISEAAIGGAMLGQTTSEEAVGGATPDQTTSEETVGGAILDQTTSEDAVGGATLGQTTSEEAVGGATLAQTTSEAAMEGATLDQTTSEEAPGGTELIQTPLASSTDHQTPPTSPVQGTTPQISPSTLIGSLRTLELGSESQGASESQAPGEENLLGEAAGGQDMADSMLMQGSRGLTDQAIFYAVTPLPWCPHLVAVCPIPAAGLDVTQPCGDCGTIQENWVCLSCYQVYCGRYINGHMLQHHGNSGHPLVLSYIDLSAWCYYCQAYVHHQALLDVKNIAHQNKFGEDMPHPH
Chain of recombinant human HDAC8 (Q9BY41 whole entry): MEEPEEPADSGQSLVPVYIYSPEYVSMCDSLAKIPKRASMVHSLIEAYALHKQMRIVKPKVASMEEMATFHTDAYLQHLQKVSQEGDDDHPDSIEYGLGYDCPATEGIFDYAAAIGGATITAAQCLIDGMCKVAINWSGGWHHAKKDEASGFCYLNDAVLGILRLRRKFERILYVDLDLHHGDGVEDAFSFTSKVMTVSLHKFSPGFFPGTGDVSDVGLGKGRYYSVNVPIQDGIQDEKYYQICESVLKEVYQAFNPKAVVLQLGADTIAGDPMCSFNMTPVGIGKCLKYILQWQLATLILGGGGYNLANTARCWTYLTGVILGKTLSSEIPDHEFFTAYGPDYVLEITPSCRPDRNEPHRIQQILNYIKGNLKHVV

| SMILES | pEC50 (HDAC6) | p21 RP3 [1] | p21 RP10 [1] | p21 RP30 [1] | pIC50 (recombinant human HDAC8) |
| --- | --- | --- | --- | --- | --- |
| O=C(NO)c1ccc2c(c1)CC(Nc1nccc(-c3ccc(N4CCOCC4)nc3)n1)CC2 (centres unmarked) [Example 31, 7-[4-(6-Morpholin-4-yl-pyridin-3-yl)-pyrimidin-2-ylamino]-5,6,7,8-tetrahydro-naphthalene-2-carboxylic acid hydroxyamide] | 5.17 | 0.18 | 0.19 | 0.12 | 6.49 |
| Cc1cc(Oc2ccccc2)nc(NC2CCc3ccc(C(=O)NO)cc3C2)n1 (centres unmarked) [Example 32, 7-(4-Methyl-6-phenoxy-pyrimidin-2-ylamino)-5,6,7,8-tetrahydro-naphthalene-2-carboxylic acid hydroxyamide] | 5.28 | 0.26 | 0.15 | −0.04 | 5.82 |
| O=C(NO)c1ccc2c(c1)CC(Nc1nccc(-c3cnc4ccccc4c3)n1)CC2 (centres unmarked) [Example 34, 7-(4-Quinolin-3-yl-pyrimidin-2-ylamino)-5,6,7,8-tetrahydro-naphthalene-2-carboxylic acid hydroxyamide] | 5.10 | 0.42 | 0.31 | −0.02 | 6.32 |
| O=C(NO)c1ccc2c(c1)CC(Nc1ncc3cc(F)ccc3n1)CC2 (centres unmarked) [Example 35, 7-(6-Fluoro-quinazolin-2-ylamino)-5,6,7,8-tetrahydro-naphthalene-2-carboxylic acid hydroxyamide] | 6.03 | −0.86 | −0.30 |  | 5.75 |
| O=C(NC1CCc2ccc(C(=O)NO)cc2C1)OCc1cccnc1 (centres unmarked) [Example 38] | 6.03 | 0.15 | 0.05 | 0.02 | 5.90 |
| CCCCS(=O)(=O)NC1CCc2ccc(C(=O)NO)cc2C1 (centres unmarked) [Example 39, 7-(Butane-1-sulfonylamino)-5,6,7,8-tetrahydro-naphthalene-2-carboxylic acid hydroxyamid] | 5.38 | 0.08 | 0.03 | 0.04 | 6.04 |
| O=C(NO)c1ccc2c(c1)CC(NS(=O)(=O)c1ccc(Cl)cc1)CC2 (centres unmarked) [Example 41, 7-(4-Chloro-benzenesulfonylamino)-5,6,7,8-tetrahydro-naphthalene-2-carboxylic acid hydroxyamide] | 5.97 | −0.15 | 0.35 | 0.05 | 6.07 |
| O=C(NO)c1ccc2c(c1)CC(NS(=O)(=O)c1cccc(C(F)(F)F)c1)CC2 (centres unmarked) [Example 43, 7-(3-Trifluoromethyl-benzenesulfonylamino)-5,6,7,8-tetrahydro-naphthalene-2-carboxylic acid hydroxyamid] | 5.41 | 0.13 | 0.08 | −0.04 | 6.43 |
| O=C(NO)c1ccc2c(c1)CC(NS(=O)(=O)c1ccc(F)cc1F)CC2 (centres unmarked) [Example 44, 7-(2,4-Difluoro-benzenesulfonylamino)-5,6,7,8-tetrahydro-naphthalene-2-carboxylic acid hydroxyamide] | 5.41 | 0.63 | 0.32 | 0.56 | 6.68 |
